# Literature values in US20070281009A1, “N-Acetylglucosamine Tablet Disintegrating In Oral Cavity And Process For Producing The Same” (Yaizu Suisankagaku Industry Co., Ltd., priority 2004, published 2007).
# Columns and labels:
# [1] = system: synthesis of hyaluronic acid
# [2] = system: arthropathy; conditions: human, 500 mg/day or 1,000 mg/day dissolved in milk
# [3] = system: skin beauty; conditions: human, oral, 1,000 mg/day
smiles,measurement,setting,value
CC1=C(/C=C/C(C)=C/C=C/C(C)=C/C=C/C=C(C)/C=C/C=C(C)/C=C/C2=C(C)CCCC2(C)C)C(C)(C)CCC1 [β-carotene],Ability to promote synthesis of hyaluronic acid,[1],known to have an ability to promote synthesis of hyaluronic acid
CC(=O)N[C@H]1C(O)O[C@H](CO)[C@@H](O)[C@@H]1O (stereo partly drawn) [N-acetylglucosamine],Effect of ameliorating arthropathy,[2],confirmed to provide an effect of ameliorating arthropathy
same,Effect on enhancing skin beauty,[3],effective
